Source: patent US12564588B2, “HECT E3 ubiquitin liagase inhibitors and uses thereof” (Northwestern University, priority 2021, dated 2026)

How the values were obtained:
UBE3A [1] = molecular target: T1, UBE3A (Homo sapiens, UniProt Q05086); conditions: blocks UBE3A oligomerization by substituting Phe727; cited from earlier work
T1 sequence (Q05086 24-875 limits assumed): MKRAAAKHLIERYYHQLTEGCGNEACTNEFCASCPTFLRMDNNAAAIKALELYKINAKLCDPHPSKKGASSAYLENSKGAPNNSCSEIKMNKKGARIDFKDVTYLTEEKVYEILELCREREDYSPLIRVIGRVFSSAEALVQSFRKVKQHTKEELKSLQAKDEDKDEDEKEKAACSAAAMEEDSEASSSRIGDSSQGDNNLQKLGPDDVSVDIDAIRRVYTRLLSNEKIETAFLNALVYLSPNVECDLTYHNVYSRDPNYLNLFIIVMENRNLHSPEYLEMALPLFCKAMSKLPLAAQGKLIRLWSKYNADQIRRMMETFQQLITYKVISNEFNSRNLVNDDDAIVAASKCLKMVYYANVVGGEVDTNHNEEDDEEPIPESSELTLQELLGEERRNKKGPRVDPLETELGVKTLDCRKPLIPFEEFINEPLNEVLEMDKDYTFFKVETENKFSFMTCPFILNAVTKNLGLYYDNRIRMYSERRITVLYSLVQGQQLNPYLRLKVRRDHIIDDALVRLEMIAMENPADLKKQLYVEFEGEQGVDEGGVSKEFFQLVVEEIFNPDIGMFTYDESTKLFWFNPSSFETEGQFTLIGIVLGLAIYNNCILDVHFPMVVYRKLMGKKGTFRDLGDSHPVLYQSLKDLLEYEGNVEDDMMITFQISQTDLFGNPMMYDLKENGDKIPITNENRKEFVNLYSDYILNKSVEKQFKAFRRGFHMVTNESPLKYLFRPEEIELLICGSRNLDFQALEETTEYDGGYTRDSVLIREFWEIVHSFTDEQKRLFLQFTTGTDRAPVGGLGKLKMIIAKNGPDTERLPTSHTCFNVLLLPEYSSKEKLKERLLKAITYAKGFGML

UBE3A [2] = molecular target: T1, UBE3A; assay: in vitro ubiquitination assay (polyubiquitination of S5A); assay type: biochemical; conditions: for IC50: S5A polyubiquitination, varying concentrations, estimated / preliminary; for inhibition of UBE3A-mediated polyubiquitination of S5A: compound at 100 μM, western/immunoblot readout
Method: FIG. 3A-B. Identification of a potential UBE3A inhibitor compound by in vitro ubiquitination assay. (A). Purified UBA1 (E1), UBE2L3 (E2) and UBE3A (E3) were pre-incubated with each compound at 100 uM, followed by incubation with purified ubiquitin (Ub) and S5A in the presence of ATP. […] NC, negative control without active UBE3A; PC, positive control with active UBE3A but with no small molecule. (B). Structure of #3 compound (Zinc 23375107).
FIG. 4A-B. Screening for compounds that are structurally analogous to #3 compound and could bind to the druggable hotspot of the UBE3A HECT domain. Left panel (A): Purified UBA1 (E1), UBE2L3 (E2) and UBE3A (E3) were pre-incubated with structural analogs of #3 compound at 100 μM, followed by incubation with purified ubiquitin (Ub) and S5A in the presence of ATP.
FIG. 5A-B. Inhibition of the E3 activity of UBE3A by various concentrations of compound #3 and #3-1. The UBE3A activity was assayed by the in vitro ubiquitination assay using S5A as a substrate and the indicated concentrations of compound #3 (A) or #3-1 (B). The polyubiquitinated forms of S5A were quantified by western analysis.
We purchased 35 compounds among the 46 hits identified by the initial virtual screen, and tested their abilities to modulate the ubiquitin ligase activity of UBE3A. The in vitro ubiquitination assay was developed using purified ubiquitin (Ub), Uba1 (E1), UbcH7/UBE2L3 (E2), UBE3A (E3), and S5A/Angiocidin/PSMD4 (substrate), as a modification of our previously reported assay (19). The purchased compounds were dissolved in DMSO to generate a stock solution at 10 mM, and then their effects on UBE3A activity were tested by adding each compound at a final concentration of 100 μM. E1, E2 and E3 enzymes were first pre-incubated at 37° C. for 30 min in a buffer containing MgCl2, ATP and each compound. Subsequently, ubiquitin and S5A were added to the reaction and incubated for 60 more minutes. Samples were then analyzed by SDS-PAGE and immunoblotting, and polyubiquitination of the substrate S5A was determined as specific appearance of forms of anti-S5A immunoreactivity at higher molecular weights.

[3] = molecular target: T2, recombinant UBE3A HECT domain (Homo sapiens, UniProt Q05086); assay: fluorescence thermal shift analysis (FTS); assay type: binding; conditions: 0.5 uM UBE3A, Hepes buffer pH7.5, Tm shifted to lower temperature
T2 construct: a truncated UBE3A protein (residues 495-852 of isoform 1) using E. coli; made in house; host or cells: E. coli
T2 sequence (Q05086 518-875): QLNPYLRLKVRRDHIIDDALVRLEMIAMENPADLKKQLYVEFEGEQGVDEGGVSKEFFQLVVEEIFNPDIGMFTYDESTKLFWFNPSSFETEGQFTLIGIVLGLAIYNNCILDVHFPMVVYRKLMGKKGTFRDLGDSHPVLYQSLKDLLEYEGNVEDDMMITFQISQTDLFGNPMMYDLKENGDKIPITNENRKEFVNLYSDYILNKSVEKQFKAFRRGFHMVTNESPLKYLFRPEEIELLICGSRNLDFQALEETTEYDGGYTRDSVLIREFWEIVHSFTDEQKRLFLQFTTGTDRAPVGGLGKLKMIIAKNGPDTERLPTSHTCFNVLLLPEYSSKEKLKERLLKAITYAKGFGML
Description: FIG. 6A-B. Fluorescence thermal shift analysis of recombinant UBE3A HECT domain with the compound #3-1. (A) Melting curves of recombinant UBE3A HECT domain with multiple concentrations of #3-1 show the melting temperature Tm was shifted to lower temperature progressively with increase in #3-1 concentration. The rise of pre-transition background reading indicates destabilizing of the protein by the small molecule inhibitor, which is consists with the decrease of Tm by the compound. (B) Plot of normalized melting curves with respect to compound concentrations. The compound #3-1 shifts the melting temperature in a significant fashion, indicating specific binding. For example, the Tm is shifted 2.5 degree by 15 uM #3-1 and 5.1 degree by 25 uM #3-1 from the reference value. The test was done with 0.5 uM UBE3A in Hepes buffer (20 mM Hepes, 150 mM NaCl, pH7.5).
To verify the physical interaction between the HECT domain of UBE3A and the identified compounds and also develop a high throughput assay for further screening, we have developed a fluorescence thermal shift analysis (FTS). we have prepared a truncated UBE3A protein (residues 495-852 of isoform 1) using E. coli and performed preliminary FTS test (FIG. 6). […] Small molecule binding affects protein thermal stability, therefore can be detected through a shift in protein's thermal denaturation (melting) temperature (Tm).

HeLa cells = assay: cytotoxicity in HPV-positive cervical cancer cells (alamarBlue cell viability); assay type: cell-based; conditions: Homo sapiens, 72 hrs incubation
Method: FIG. 7. Cytotoxicity of the hit compound #3-1 in HPV-positive cervical cancer cells. HPV18-positive human cervical cancer HeLa cells were incubated for 72 hrs with the compound #3-1 at the indicated concentrations, followed by determination of cell viability by the alamarBlue™ HS Cell Viability Reagent (Thermo). Data are shown as means±SEM, and the EC50 is estimated to be 30 μM.
We have recently tested whether the compound #3.1 exert any cytotoxic action in HPV-positive cancer cells. Human cervical carcinoma HeLa cells are a widely used HPV18-positive cell lines. We incubated HeLa cells with the compound #3.1 at various concentrations for 72 hours and determined viability of the cells (FIG. 7). This study has shown that the compound #3.1 exerts cytotoxicity in a dose-dependent manner with EC50 at 30 μM.

## CC(=O)N[C@@H](Cc1ccccc1)C(=O)O [N-acetyl phenylalanine]
UBE3A [1]
  Ki: 12000 µM

## COc1ccc(CNCc2cccc(C)c2)c(OCC(O)CN2CCN(C)CC2)c1 (stereo not shown) [#3-1, 1-(5-methoxy-2-{[(3-methylbenzyl)amino]methyl}phenoxy)-3-(4-methyl-1-piperazinyl)-2-propanol]
UBE3A [2]
  IC50: ~10 µM
  inhibition of UBE3A-mediated polyubiquitination of S5A: capable of inhibiting the UBE3A-mediated polyubiquitination of S5A substrate
UBE3A [2]; listed as #3.1
  inhibition of UBE3A-mediated polyubiquitination of S5A: inhibited formation of PolyUb-S5A
[3]; 15 uM compound
  Tm shift from the reference value: 2.5 degree
[3]; 25 uM compound
  Tm shift from the reference value: 5.1 degree
HeLa cells
  EC50: 30 µM

## COc1ccc(CNCC2CCOCC2)c(OCC(O)CN2CCN(C)CC2)c1 (stereo not shown) [#3, 1-(5-methoxy-2-{[(tetrahydro-2H-pyran-4-ylmethyl)amino]methyl}phenoxy)-3-(4-methyl-1-piperazinyl)-2-propanol]
UBE3A [2]
  IC50: ~100 µM
  inhibition of UBE3A-mediated polyubiquitination of S5A: inhibited formation of PolyUb-S5A
UBE3A [2]; listed as Zinc 23375107
  inhibition of UBE3A-mediated polyubiquitination of S5A: significantly inhibits polyubiquitination of S5A
